EP4647082A1, “PHARMACEUTICAL COMPOSITION COMPRISING A CGRP RECEPTOR ANTAGONIST FOR THE TREATMENT OF ACUTE MIGRAINE” (NUVIE BIO, Inc., priority 2024, dated 2025)
Where two headings read alike, the source gives them in different places. Marks after values point to notes of the source that are not given here. Bridge positions count the residues as written; N and C are the ends. Square brackets hold non-standard residues; d marks the D form. Peptide text beside a SMILES is read from it. * marks the point of attachment. Phe(2-CONH2) = NC(=O)c1ccccc1C[C@H](N)C(=O)O; Orn(iPr) = CC(C)NCCC[C@H](N)C(=O)O; Oxazole2carbonyl = O=C(c1ncco1)*; 3Pal = N[C@@H](Cc1cccnc1)C(=O)O

Assay: Phase I first-in-human study, pharmacokinetics after single ascending subcutaneous doses in healthy volunteers
Format: in vivo
Settings: for level at 2 h: nominal time 2 h; for level at 3 h: nominal time 3 h; for T10nM: time to 10 nM; for T30nM: time to 30 nM; for T100nM: time to 100 nM
Protocol: For Phase I clinical studies, the 32 mg/mL pharmaceutical composition was dosed subcutaneously. The Phase I clinical trial was a randomised, double-blind, placebo-controlled, first-in-human study of the safety, tolerability and pharmacokinetics of AXN-001 in healthy volunteers under Protocol No. AXN-001-01 .
The pharmacokinetic objective of the clinical trial was to provide pharmacokinetic analysis of AXN-001 following single ascending subcutaneous doses of AXN-001. The study design included the following Cohorts: • Cohort 1: Dose 1 mg (2 mg/mL formulation); • Cohort 2: Dose 2 mg (4 mg/mL formulation); • Cohort 3: Dose 4 mg (8 mg/mL formulation); • Cohort 4: Dose 8 mg (16 mg/mL formulation); • Cohort 5: Dose 16 mg (32 mg/mL formulation).
Participants were administered a single dose (0.5 mL) of AXN-001 or placebo via subcutaneous (SC) injection into the abdomen. Blood samples were collected at specified time points for pharmacokinetic analysis (5,10,15,20,30,45,60 minutes; 2,3,4,6,8,12,24 hours). Individual plasma concentrations of ANX-001 were determined and used for analyses.
Pharmacokinetic (PK) parameters of AXN-001 were determined using Phoenix WinNonlin version 8.3. All concentrations below the limit of quantification (BLQ) were set to zero for the purpose of the PK analysis. All AUC determinations were made using linear trapezoidal method. The following parameters were determined: Cmax Maximum observed concentration. as read directly from the observed data. Tmax Time to maximum concentration T10nM Time to 10 nM T30nM Time to 30 nM T100nM Time to 100 nM AUC0-t Area under the concentration-time curve from time zero to the time of the last measurable concentration, calculated using linear trapezoidal rule AUC0-inf Area under the concentration-time curve from time zero to infinity, calculated using linear trapezoidal rule %AUCextrap The portion of AUC determined by extrapolation t1/2 Apparent terminal elimination half-life CL/F or CL Total apparent body clearance Vz/F or Vz Apparent volume of distribution λz Terminal elimination rate constant

[1] = human, plasma, single SC dose 8 mg, mean, read-out: Plasma Concentration AXN-001
[2] = human, plasma, single SC dose 16 mg, mean
[3] = human, plasma, single SC dose 16 mg, mean, read-out: Plasma Concentration AXN-001

level at 2 h [1]: 136 ng/mL | level at 3 h [1]: 72 ng/mL | level at 4 h (human, plasma, single SC dose 8 mg, nominal time 4 h, mean, read-out: Plasma Concentration AXN-001): 38.7 ng/mL | level at 6 h (human, plasma, single SC dose 8 mg, nominal time 6 h, mean, read-out: Plasma Concentration AXN-001): 13.9 ng/mL | level at 8 h (human, plasma, single SC dose 8 mg, nominal time 8 h, mean, read-out: Plasma Concentration AXN-001): 5.8 ng/mL | level at 12 h (human, plasma, single SC dose 8 mg, nominal time 12 h, mean, read-out: Plasma Concentration AXN-001): 0.38 ng/mL | AUC(0-inf) [2]: 1250 ng·h/mL | AUC(0-t) [2]: 1230 ng·h/mL | CL/F [2]: 222 mL/min | Cmax [2]: 381 ng/mL | Tmax [2]: 0.958 h | half-life [2]: 2.8 h | level at 0.08 h (human, plasma, single SC dose 16 mg, nominal time 0.08 h, mean, read-out: Plasma Concentration AXN-001): 27.4 ng/mL | level at 0.17 h (human, plasma, single SC dose 16 mg, nominal time 0.17 h, mean, read-out: Plasma Concentration AXN-001): 83.4 ng/mL | level at 0.25 h (human, plasma, single SC dose 16 mg, nominal time 0.25 h, mean, read-out: Plasma Concentration AXN-001): 139 ng/mL | level at 0.33 h (human, plasma, single SC dose 16 mg, nominal time 0.33 h, mean, read-out: Plasma Concentration AXN-001): 183 ng/mL | level at 0.5 h (human, plasma, single SC dose 16 mg, nominal time 0.50 h, mean, read-out: Plasma Concentration AXN-001): 294 ng/mL | level at 0.75 h (human, plasma, single SC dose 16 mg, nominal time 0.75 h, mean, read-out: Plasma Concentration AXN-001): 355 ng/mL | level at 1 h (human, plasma, single SC dose 16 mg, nominal time 1 h, mean, read-out: Plasma Concentration AXN-001): 380 ng/mL | level at 2 h [3]: 277 ng/mL | level at 3 h [3]: 170 ng/mL | level at 4 h (human, plasma, single SC dose 16 mg, nominal time 4 h, mean, read-out: Plasma Concentration AXN-001): 96.8 ng/mL | level at 6 h (human, plasma, single SC dose 16 mg, nominal time 6 h, mean, read-out: Plasma Concentration AXN-001): 44 ng/mL | level at 8 h (human, plasma, single SC dose 16 mg, nominal time 8 h, mean, read-out: Plasma Concentration AXN-001): 23.7 ng/mL | level at 12 h (human, plasma, single SC dose 16 mg, nominal time 12 h, mean, read-out: Plasma Concentration AXN-001): 9.2 ng/mL | %AUCextrap (single SC dose 1 mg, mean): 5.37% | Vz/F (single SC dose 1 mg, mean): 19.1 L | λz (single SC dose 1 mg, mean): 0.535 h⁻¹ | Plasma Concentration AXN-001 (single SC dose 1 mg, nominal time 0.08 h, mean): 4.96 ng/mL | Plasma Concentration AXN-001 (single SC dose 1 mg, nominal time 0.17 h, mean): 12.8 ng/mL | Plasma Concentration AXN-001 (single SC dose 1 mg, nominal time 0.25 h, mean): 17.9 ng/mL | Plasma Concentration AXN-001 (single SC dose 1 mg, nominal time 0.33 h, mean): 28.5 ng/mL | Plasma Concentration AXN-001 (single SC dose 1 mg, nominal time 0.50 h, mean): 34.8 ng/mL | Plasma Concentration AXN-001 (single SC dose 1 mg, nominal time 0.75 h, mean): 39.3 ng/mL | Plasma Concentration AXN-001 (single SC dose 1 mg, nominal time 4 h, mean): 7.47 ng/mL | Plasma Concentration AXN-001 (single SC dose 1 mg, nominal time 6 h, mean): 2.8 ng/mL | Plasma Concentration AXN-001 (single SC dose 1 mg, nominal time 8 h, mean): 0 ng/mL | Plasma Concentration AXN-001 (single SC dose 1 mg, nominal time 12 h, mean): 0 ng/mL | T10nM (single SC dose 1 mg): 12 min | T30nM (single SC dose 1 mg, marked *, 1 of 6 subjects reached 30nM): 19* min | %AUCextrap (single SC dose 2 mg, mean): 4.98% | Vz/F (single SC dose 2 mg, mean): 24.6 L | λz (single SC dose 2 mg, mean): 0.528 h⁻¹ | Plasma Concentration AXN-001 (single SC dose 2 mg, nominal time 12 h, mean): 0 ng/mL | T10nM (single SC dose 2 mg): 9 min | T30nM (single SC dose 2 mg, marked *, 5 of 6 subjects reached 30nM): 21* min | %AUCextrap (single SC dose 4 mg, mean): 1.82% | Vz/F (single SC dose 4 mg, mean): 23.3 L | λz (single SC dose 4 mg, mean): 0.517 h⁻¹ | T10nM (single SC dose 4 mg): 6 min | T30nM (single SC dose 4 mg): 11 min | T100nM (single SC dose 4 mg, marked *, 2/5 of cohort reached 100nM): 25* min | %AUCextrap (single SC dose 8 mg, mean): 1.58% | Vz/F (single SC dose 8 mg, mean): 28.7 L | λz (single SC dose 8 mg, mean): 0.481 h⁻¹ | T10nM (single SC dose 8 mg): 3 min | T30nM (single SC dose 8 mg): 7 min | T100nM (single SC dose 8 mg): 21 min | %AUCextrap (single SC dose 16 mg, mean): 1.51% | Vz/F (single SC dose 16 mg, mean): 55.3 L | λz (single SC dose 16 mg, mean): 0.292 h⁻¹ | T10nM (single SC dose 16 mg): 3 min | T30nM (single SC dose 16 mg): 7 min | T100nM (single SC dose 16 mg): 17 min
Compound: CC(C)NCCC[C@@H]1NC(=O)[C@@H](NC(=O)[C@H](Cc2ccccc2C(N)=O)NC(=O)[C@H](NC(=O)c2ncco2)C(C)C)CSSC[C@@H](C(=O)N[C@@H](Cc2cccnc2)C(N)=O)NC(=O)[C@H](Cc2ccccc2)NC(=O)[C@@H]2CCCN2C(=O)CNC(=O)[C@H](C(C)C)NC(=O)[C@H](CC(=O)O)NC1=O [AXN-001, Oxazole-2-carbonyl-D-Val-Phe(2-Cbm)-c(Cys-Orn (iPr)-Asp-Val-Gly-Pro-Phe-Cys)-3Pal-NH2] (Oxazole2carbonyl-[dV][Phe(2-CONH2)]C[Orn(iPr)]DVGPFC[3Pal]-NH2; disulfide 3-10)
free plasma concentration (Figure 5) (within 30 minutes, compared with olcegepant, zavegepant, rimegepant and ubrogepant, consistent up to 120 minutes): much higher increase in free plasma concentration
